Assay results taken from PMC12250071, “Cloning, Expression and Functional Characterization of V. vinifera CAT2 Arginine Transporter” (International Journal of Molecular Sciences, 2025).

Biological target: T1, VvCAT2
T1 construct: gene CAT2; full-length, C-terminal 6His, reconstituted in proteoliposomes
Assay: competitive inhibition of [3H]arginine uptake in proteoliposomes with purified transporter (Lineweaver-Burk); also transported as [3H]ornithine
Assay type: biochemical, Vitis vinifera

## NCCC[C@H](N)C(=O)O [ornithine]
  Ki: 2200 ± 500 µM
